From patent US9518008B2, “(1S,2S,3S,4R)-3-[(1S)-1-acetylamino-2-ethyl-butyl]-4-uanidino-2-hydroxyl-cyclopentyl-1-carboxylic acid hydrates pharmaceutical uses thereof” (Institute of Pharmacology and Toxicology Academy of …, priority 2007, dated 2016)
Read-outs that look alike come from different tables or passages of the source.

Key:
[1] = Determination of hygroscopicity (high humidity test); format: physicochemical
Method: The hygroscopicity of the compound of the invention can be tested by a standard hygroscopicity test method. For example, the compound is stored in a sealed vessel at room temperature at a relative humidity of 92.5%, 80% or 75%, and the change in moisture content of the compound is tested by sampling at regular intervals.
At the 5th and 10th days, the products were sampled and determined in aspect of important items relating to stability investigation. […] If the weight gain of a product due to moisture absorption was more than 5%, the product was further experimented according to the same method under a relative humidity of 75%±5%. If the weight gain of a product due to moisture absorption was less than 5%, and other items thereof under investigation met the relevant requirements, no more experiment was needed. The humidity-constant condition could be achieved by placing a saturated saline solution at the lower part of a sealed vessel, e.g., a desiccator, and a NaCl saturated solution (15.5-60° C., a relative humidity of 75%±1%) or a KNO3 saturated solution (25° C., a relative humidity of 92.5%) may be selected according to the requirement of different relative humidity.

[2] = Accelerated stability test of the hydrates; conditions: for Character / Content / Change in weight: 40° C., 75% RH
Method: The stability of the compound of the invention can be tested by a standard stability test method, such as the methods specified in Guidelines for Stability Testing of Drug Substances involved in Appendix XIX C of Chinese Pharmacopoeia (2005 edition). For example, the stability of the compound of the general formula (I) can be tested by an accelerated stability test method, e.g., the stability of the compound of the general formula (I), at 0, 1, 2, 3, 6 months, is tested respectively under the conditions: 40° C., 75% relative humidity; 40° C., 92.5% relative humidity; and 80° C. The change in principal agent and relevant substances can be analyzed by thin layer chromatography, high performance liquid chromatography, and etc.
The device used should be capable of controlling temperature with a precise of ±2° C., and relative humidity with a precise of ±5%, and could monitor true temperature and humidity. The products were sampled respectively at the end of the 1, 2, 3 and 6 months during the test, and determined in aspect of important items relating to stability investigation.

[3] = Dissolution behavior in water; format: physicochemical; conditions: for dissolution behavior: 100 ml: 300 mg
Method: (1) water for injection (room temperature)
(2) water for injection (80° C.)
(3) water for injection (room temperature, adjusted to be acidic with hydrochloric acid)
(4) water for injection (adjusted to be basic with disodium hydrogen phosphate)

[4] = Influence of different acidic conditions (pH) on stability of trihydrate solution, sterilization; format: physicochemical; conditions: conclusion from sterilization and 60° C. data
Method: The resulting solutions were high pressure steam sterilized at 115° C. for 30 minutes. Then, the solutions were sampled for the determination of change in pH value and change in amount of relevant substances.

[5] = target: Influenza A virus (H3N2) neuraminidase (Influenza A virus, UniProt P03482); experiment: Neuraminidase inhibition by fluorimetry with 4-MUNANA; format: biochemical
Influenza A virus (H3N2) neuraminidase, sequence (P03482 whole entry, looked up): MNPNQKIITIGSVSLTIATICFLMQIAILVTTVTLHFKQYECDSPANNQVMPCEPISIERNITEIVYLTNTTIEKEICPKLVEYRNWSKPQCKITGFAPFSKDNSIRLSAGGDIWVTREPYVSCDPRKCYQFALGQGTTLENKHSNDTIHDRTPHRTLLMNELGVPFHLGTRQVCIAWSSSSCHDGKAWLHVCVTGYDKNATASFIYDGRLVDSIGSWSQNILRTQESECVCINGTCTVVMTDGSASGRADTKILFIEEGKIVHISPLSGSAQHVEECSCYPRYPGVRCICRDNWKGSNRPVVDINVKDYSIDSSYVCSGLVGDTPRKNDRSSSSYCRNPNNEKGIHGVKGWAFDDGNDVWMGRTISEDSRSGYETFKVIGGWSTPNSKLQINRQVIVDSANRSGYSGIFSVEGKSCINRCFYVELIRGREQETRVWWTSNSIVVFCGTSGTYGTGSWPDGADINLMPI

[6] = test system: Influenza B virus (B/Jing Fang/76/98) neuraminidase; experiment: as above; format: biochemical
[7] = test system: influenza virus strain FM1 (H1N1); experiment: Anti-influenza activity in infected mice (survival); format: in vivo, mice (BALB/C); conditions: 5 times, 14th day after infection
Method: A virus drip is prepared typically by including 500 pfu (plaque forming unit) of mice-compliance influenza virus strain in 50 μl phosphate buffer (containing 0.42% bovine serum albumin), and then dropped into nasal cavity of mice to infect them (BALB/C, female, aged 5-6 weeks, weighted 20 g). The compound of the invention is suspended in physiological saline to obtain different doses, typically from 2.5 mg/kg to 40 mg/kg, and is administered to the mice at different time before and after the viral infection, typically administered by intraperitoneal injection for 5 times, i.e., 1 hour, and 2, 3, 4, 5 days after the viral infection. The assay is performed by using 8 or 12, typically 10 mice. The result is expressed by the ratio of the number of survival mice the 14th day after the viral infection to the number of the mice in assay.
A solution was prepared by including 500 pfu (plaque forming unit) of mice-compliance influenza virus strain FM1 (H1N1) in 50 μl phosphate buffer (containing 0.42% bovine serum albumin), and then dropped into nasal cavity of mice (BALB/C, female, aged 5-6 weeks, weighted 20 g) to infect them with an infective dose of 23.7LD50. The compound of the invention was suspended in physiological saline, and was administered in doses of 2.5 mg/kg, 5 mg/kg, 10 mg/kg, 20 mg/kg to the mice by intraperitoneal injection for 5 times, i.e., 1 hour, and 2, 3, 4, 5 days after the viral infection, respectively. The assay was performed by 10 mice. The result was expressed by the ratio of the number of survival mice the 14th day after the viral infection to the number of the mice in assay.

[8] = Relative humidity 92.5%, 25° C.
[9] = Con. 0.01 nM, virus concentration NA 1/40
[10] = Con. 0.1 nM, virus concentration NA 1/40
[11] = Con. 1 nM, virus concentration NA 1/40
[12] = Con. 10 nM, virus concentration NA 1/40
[13] = Con. 100 nM, virus concentration NA 1/40
[14] = virus concentration NA 1/40, read-out: IC50

## CCC(CC)[C@H](NC(C)=O)[C@H]1[C@H](O)[C@@H](C(=O)O)C[C@H]1NC(=N)N.O.O.O.O.O.O [Hexahydrate, (1S,2S,3S,4R)-3-[(1S)-1-acetylamino-2-ethyl-butyl]-4-guanidino-2-hydroxy-cyclopentyl-1-carboxylic acid hexahydrate]
[1]; Relative humidity 75%
  Hygroscopicity at the 5th day: 3.86%
  Hygroscopicity at the 10th day: 6.33%
[1]; [8]
  Hygroscopicity at the 5th day: 4.37%
  Hygroscopicity at the 10th day: 9.96%

## CCC(CC)[C@H](NC(C)=O)[C@H]1[C@H](O)[C@@H](C(=O)O)C[C@H]1NC(=N)N.O.O.O [Trihydrate, (1S,2S,3S,4R)-3-[(1S)-1-acetylamino-2-ethyl-butyl]-4-guanidino-2-hydroxy-cyclopentyl-1-carboxylic acid trihydrate]
[1]; Relative humidity 75%
  Hygroscopicity at the 5th day: 1.68%
  Hygroscopicity at the 10th day: 1.83%
[1]; [8]
  Hygroscopicity at the 5th day: 2.11%
  Hygroscopicity at the 10th day: 2.24%
[1]; ten-day observation test, sealed vessel, room temperature, high relative humidity
  weight gain: about 2.24%
[2]; 0 month
  Character: White solid
  Content: 99.90%
[2]; 1 month
  Change in weight: +0.01%
  Character: White solid
  Content: 99.95%
[2]; 2 months
  Change in weight: −0.02%
  Character: White solid
  Content: 99.97%
[2]; 3 months
  Change in weight: +0.01%
  Character: White solid
  Content: 99.96%
[2]; 6 months
  Change in weight: +0.01%
  Character: White solid
  Content: 99.91%
[2]; stability test of 1, 2, 3, 6 months
  stability: good stability
[3]; (1) water for injection (room temperature)
  dissolution behavior: slowly dissolved
[3]; (2) water for injection (80° C.)
  dissolution behavior: rapidly dissolved
[3]; (3) water for injection, room temperature, acidic with hydrochloric acid
  dissolution behavior: relatively easily dissolved
[3]; (4) water for injection adjusted to be basic with disodium hydrogen phosphate
  dissolution behavior, condition (3) compared with (4): more easily dissolved under acidic condition
[4]
  optimum pH value (stability in solution): 4.5-6.5
[5]; [9]
  inhibitory rate IR: 0.63%
[5]; Con. 0.01 nM, virus concentration NA 1/80
  inhibitory rate IR: 12.33%
[5]; [10]
  inhibitory rate IR: 13.23%
[5]; Con. 0.1 nM, virus concentration NA 1/80
  inhibitory rate IR: 24.04%
[5]; [11]
  inhibitory rate IR: 60.99%
[5]; Con. 1 nM, virus concentration NA 1/80
  inhibitory rate IR: 63.20%
[5]; [12]
  inhibitory rate IR: 99.25%
[5]; Con. 10 nM, virus concentration NA 1/80
  inhibitory rate IR: 98.80%
[5]; [13]
  inhibitory rate IR: 100.43%
[5]; Con. 100 nM, virus concentration NA 1/80
  inhibitory rate IR: 99.89%
[5]; average of NA 1/40 and NA 1/80, read-out: Average IC50
  IC50: 0.542 nM
[5]; [14]
  IC50: 0.673 nM
[5]; virus concentration NA 1/80, read-out: IC50
  IC50: 0.411 nM
[6]; Con. 0.01 nM, virus concentration NA 1/20
  inhibitory rate IR: 8.81%
[6]; [9]
  inhibitory rate IR: 7.92%
[6]; Con. 0.1 nM, virus concentration NA 1/20
  inhibitory rate IR: 15.31%
[6]; [10]
  inhibitory rate IR: 19.17%
[6]; Con. 1 nM, virus concentration NA 1/20
  inhibitory rate IR: 39.11%
[6]; [11]
  inhibitory rate IR: 44.84%
[6]; Con. 10 nM, virus concentration NA 1/20
  inhibitory rate IR: 82.01%
[6]; [12]
  inhibitory rate IR: 81.45%
[6]; Con. 100 nM, virus concentration NA 1/20
  inhibitory rate IR: 97.78%
[6]; [13]
  inhibitory rate IR: 96.71%
[6]; average of NA 1/20 and NA 1/40, read-out: Average IC50
  IC50: 1.07 nM
[6]; virus concentration NA 1/20, read-out: IC50
  IC50: 1.14 nM
[6]; [14]
  IC50: 0.998 nM
[7]; 2.5 mg/kg intraperitoneal
  Survival number: 6/10
  Survival rate: 60%
[7]; 5.0 mg/kg intraperitoneal
  Survival number: 7/10
  Survival rate: 70%
[7]; 10 mg/kg intraperitoneal
  Survival number: 8/10
  Survival rate: 80%
[7]; 20 mg/kg intraperitoneal
  Survival number: 9/10
  Survival rate: 90%

## CCC(CC)[C@H](NC(C)=O)[C@H]1[C@H](O)[C@@H](C(=O)O)C[C@H]1NC(=N)N.CCC(CC)[C@H](NC(C)=O)[C@H]1[C@H](O)[C@@H](C(=O)O)C[C@H]1NC(=N)N.O.O.O [Sesquihydrate, (1S,2S,3S,4R)-3-[(1S)-1-acetylamino-2-ethyl-butyl]-4-guanidino-2-hydroxy-cyclopentyl-1-carboxylic acid sesquihydrate]
[1]; Relative humidity 75%
  Hygroscopicity at the 5th day: 4.01%
  Hygroscopicity at the 10th day: 6.89%
[1]; [8]
  Hygroscopicity at the 5th day: 4.48%
  Hygroscopicity at the 10th day: 7.33%

## CCC(CC)[C@H](NC(C)=O)[C@H]1[C@H](O)[C@@H](C(=O)O)C[C@H]1NC(=N)N.O [Monohydrate, (1S,2S,3S,4R)-3-[(1S)-1-acetylamino-2-ethyl-butyl]-4-guanidino-2-hydroxy-cyclopentyl-1-carboxylic acid monohydrate]
[1]; Relative humidity 75%
  Hygroscopicity at the 5th day: 2.41%
  Hygroscopicity at the 10th day: 2.77%
[1]; [8]
  Hygroscopicity at the 5th day: 2.83%
  Hygroscopicity at the 10th day: 3.35%
